Laboratory results as given in patent US4468403A, “Analgesic substituted piperidylidene-2-sulfon(cyan)amide derivatives” (priority 1982, dated 1984).
“Also recorded” adds a separate entry of the source. Read-outs that look alike come from different tables or passages of the source.

Experiments:
[1] = format: in vivo, male Swiss albino mice; conditions: for % Inhibn, control (single agent) in antagonist study: alone
Protocol: (§1) The percent change is calculated according to the following equation: % change=100- (no. of writhes in treated group/no. of writhes in control group)×100.

[2] = Analgesic antagonist testing against morphine sulfate (phenylquinone writhing); format: in vivo, male Swiss albino mice
Protocol: as §1

[3] = Analgesic antagonist testing against analgesic agonists of the W-1 to W-19 and 0-1 to 0-3 series, e.g. W-3 (phenylquinone writhing); format: in vivo, male Swiss albino mice
Protocol: as §1

Structure (SMILES)	% Inhibn, control (single agent) in antagonist study ([1]; 0.5 mg/kg sc)	% Inhibn, control (single agent) in antagonist study ([1]; 2.0 mg/kg sc)	% Inhibn, control (single agent) in antagonist study ([1]; 10.0 mg/kg sc)	Analgesic action, inhibition action on phenylquinone writhing: dose giving 50 % inhibition ([1]; subcutaneous, 30 min before phenyl-p-benzoquinone, dose with 50 % inhibition)	Analgesic action, inhibition action on phenylquinone writhing, % inhibition ([1]; subcutaneous, at the dose listed for the substance under E1)	Antagonist activities, % inhibition of writhing with antagonist + agonist ([2]; Expt. 1: W-20 (2.0 mg/kg sc) 10 min before MS (0.2 mg/kg sc))	Antagonist activities, % inhibition of writhing with antagonist + agonist ([2]; Expt. 2: W-20 (10.0 mg/kg sc) 10 min before MS (0.2 mg/kg sc))	Block of agonist analgesic effect, in words ([2]; W-20 (2.0 mg/kg sc) vs MS (0.2 mg/kg sc))	Block of agonist analgesic effect, in words ([2]; W-20 (10.0 mg/kg sc) vs MS (0.2 mg/kg sc))	Antagonist activities, % inhibition of writhing with antagonist + agonist ([3]; Expt. 3: W-20 (0.5 mg/kg sc) 10 min before W-3 (2.0 mg/kg sc))	Antagonist activities, % inhibition of writhing with antagonist + agonist ([3]; Expt. 4: W-20 (2.0 mg/kg sc) 10 min before W-3 (2.0 mg/kg sc))	Block of agonist analgesic effect, in words ([3]; W-20 (0.5 mg/kg sc) vs W-3 (2.0 mg/kg sc))	Block of agonist analgesic effect, in words ([3]; W-20 (2.0 mg/kg sc) vs W-3 (2.0 mg/kg sc))	Antagonist activities, % inhibition of writhing with antagonist + agonist ([3]; Expt. 5: Naloxone (1.0 mg/kg sc) before W-3 (5.0 mg/kg sc))	Block of agonist analgesic effect, in words ([3]; Naloxone (1.0 mg/kg sc) vs W-3 (5.0 mg/kg sc))	Antagonist activity, in words ([3]; toward W-3, dose not given)
O=S(=O)(N=C1CCCCN1CC1CC1)c1ccc(Cl)cc1 [Compound W-20, 1-Cyclopropylmethylpiperidylidene-2-(4-chlorophenyl)sulfonamide]	36%	46%	69%	2.3 mg/kg	50%	55%	66%	near complete block	complete block; also recorded: completely blocks	53%	49%	partial block	complete block; also recorded: completely blocks			
C=CCN1CC[C@]23c4c5ccc(O)c4O[C@H]2C(=O)CC[C@@]3(O)[C@H]1C5 [Naloxone, reference compound]														45%	partial block; also recorded: partially blocks	acted as an antagonist toward W-3
